In ChEMBL document CHEMBL1201862, “PubChem BioAssay data set” (2004):
Structures can show the parent of a compound that is named as a salt.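 Tested at 5 concentrations; 48 h exposure; 96-well plates; endpoints linearly interpolated, else capped at highest concentration. The concentration for 50% growth inhibition is given as GI50.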 The source made the active and inactive calls. Rule as the data show it: active = GI50 up to about 1.1 µM and inactive = higher.

Experiments:
Experiment in all cases: growth of human tumour cells (NCI), 48 h
KM-20L2 = system: KM-20L2
M19-MEL = system: M19-MEL
DLD-1 = system: DLD-1
XF498 = system: XF498
SNB-78 = system: SNB-78
HOP-18 = system: HOP-18
DMS-114 = system: DMS-114
LXFL 529 = system: LXFL 529
RXF 631 = system: RXF 631

| SMILES | GI50 (KM-20L2) | GI50 (M19-MEL) | GI50 (DLD-1) | GI50 (XF498) | GI50 (SNB-78) | GI50 (HOP-18) | GI50 (DMS-114) | GI50 (LXFL 529) | GI50 (RXF 631) |
| --- | --- | --- | --- | --- | --- | --- | --- | --- | --- |
| O=C1OC(=O)C2C1C1(c3ccccc3)OC2(c2ccccc2)c2c(Br)c(Br)c(Br)c(Br)c21 (stereo not given) | > 100 µM (inactive) | > 100 µM (inactive) | > 100 µM (inactive) | > 100 µM (inactive) | 83.8 µM (inactive) | > 100 µM (inactive) | > 100 µM (inactive) | > 100 µM (inactive) |  |
| COc1ccc(C[C@H](N)C(=O)NC2C(CO)OC(n3cnc4c(N(C)C)ncnc43)C2O)cc1 (stereo not given in full) | 0.513 µM (active) | 0.296 µM (active) | 1.11 µM (active) | 0.0458 µM (active) | 0.213 µM (active) | 2.13 µM (inactive) | 0.17 µM (active) | 0.121 µM (active) | 1 µM (active) |
| O=C(O)c1cc(=O)c2[nH]c3ccccc3c2s1 | > 100 µM (inactive) | > 100 µM (inactive) | > 100 µM (inactive) | > 100 µM (inactive) | > 100 µM (inactive) |  | > 100 µM (inactive) | > 100 µM (inactive) | > 100 µM (inactive) |
| CNCc1cc(OC)ccc1-c1ccc(OC)c(OC)c1OC | > 100 µM (inactive) | > 100 µM (inactive) | > 100 µM (inactive) | 85.3 µM (inactive) | > 100 µM (inactive) | > 32.5 µM (inactive) | 60.8 µM (inactive) | > 100 µM (inactive) | > 100 µM (inactive) |
| SCc1ccc(-c2ccc(CS)cc2)cc1 | 23.6 µM (inactive) | 18.6 µM (inactive) | 17 µM (inactive) | 20.6 µM (inactive) | 18.3 µM (inactive) | 16.4 µM (inactive) | 12.5 µM (inactive) | 14.4 µM (inactive) |  |
| CC(C)(C=O)CC(C#N)/C(=N\NC(N)=O)C(=O)Nc1ccccc1C(N)=O (stereo not given) | > 100 µM (inactive) | > 100 µM (inactive) |  | > 100 µM (inactive) | > 100 µM (inactive) |  |  | > 100 µM (inactive) |  |
| Nc1nc(OCc2ccccc2)c2nc[nH]c2n1 [6-O-BENZYLGUANINE] | 85.7 µM (inactive) | 198 µM (inactive) | 64.6 µM (inactive) |  | 79.8 µM (inactive) | 87.3 µM (inactive) | 64 µM (inactive) | 93.3 µM (inactive) | 69.7 µM (inactive) |
| O=C1OC(c2ccccc2)=N/C1=C/NC(CO)C(=O)O (stereo not given) | > 100 µM (inactive) | > 100 µM (inactive) | > 100 µM (inactive) | > 100 µM (inactive) | > 100 µM (inactive) | 45.6 µM (inactive) | > 100 µM (inactive) | > 100 µM (inactive) | > 100 µM (inactive) |
| COc1ccc2c(=O)cc(-c3ccc(OC)c(OC)c3OC)oc2c1 | 26.5 µM (inactive) | 67.9 µM (inactive) | 53.3 µM (inactive) | 46.7 µM (inactive) |  |  | 76.2 µM (inactive) | 40.4 µM (inactive) | 97.3 µM (inactive) |
| O=[N+]([O-])c1ccc(C[P+](c2ccccc2)(c2ccccc2)c2ccccc2)cc1 | 99.3 µM (inactive) | 24.2 µM (inactive) | 50.4 µM (inactive) | < 0.01 µM (active) |  | 79.8 µM (inactive) | 23.2 µM (inactive) | 12.5 µM (inactive) |  |
| COc1ccc2cccc(C(=N)c3ccc(C)c4c3CCC4)c2c1 | 5.82 µM (inactive) | 9.62 µM (inactive) |  |  |  | 0.895 µM (active) | 7.08 µM (inactive) | 4.86 µM (inactive) | 1.37 µM (inactive) |
| Cc1cccc(C)c1NC(=O)C(=O)C(C#N)c1ccccc1Cl (stereo not given) | > 100 µM (inactive) | > 100 µM (inactive) | > 100 µM (inactive) | > 100 µM (inactive) | > 100 µM (inactive) | 91.4 µM (inactive) | > 100 µM (inactive) | > 100 µM (inactive) |  |
| COc1ccc2nccc(C3=CCC4CCN(C(=O)c5ccccc5)C3C4)c2c1 (stereo not given) |  | > 100 µM (inactive) | > 100 µM (inactive) | 92 µM (inactive) | > 100 µM (inactive) |  | > 100 µM (inactive) | > 100 µM (inactive) |  |
| COc1ccc2[nH]c3c(C)c4c(c(C)c3c2c1)CN(C)CC4 | 17 µM (inactive) | 17.3 µM (inactive) | 22.6 µM (inactive) |  | 25.3 µM (inactive) | 10.6 µM (inactive) | 18.6 µM (inactive) | 17 µM (inactive) | 21.7 µM (inactive) |
| CC#CC#C/C=C1\C=CC2(OC=CC2O)O1 (stereo not given) | 3.94 µM (inactive) | 15.3 µM (inactive) | 8.93 µM (inactive) | 9.4 µM (inactive) | 4.93 µM (inactive) | 4.79 µM (inactive) | 7.38 µM (inactive) | 6.24 µM (inactive) |  |
| COc1ccc2[nH]c3c(c2c1)CCN(C)CC3 | > 100 µM (inactive) | 57.4 µM (inactive) | > 100 µM (inactive) | > 100 µM (inactive) | > 100 µM (inactive) | > 100 µM (inactive) |  |  | > 100 µM (inactive) |
| Cc1cc2c3ccccc3n3c2c2c1OC1(C)CCC(C2C1)C3(C)C (stereo not given) | > 25 µM (inactive) | > 25 µM (inactive) | > 25 µM (inactive) | > 25 µM (inactive) | > 25 µM (inactive) |  | > 25 µM (inactive) | > 25 µM (inactive) |  |

| SMILES | GI50 (KM-20L2) | GI50 (M19-MEL) | GI50 (DLD-1) | GI50 (XF498) | GI50 (SNB-78) | GI50 (HOP-18) | GI50 (DMS-114) | GI50 (LXFL 529) | GI50 (RXF 631) |
| --- | --- | --- | --- | --- | --- | --- | --- | --- | --- |
| Cc1ccc(S(=O)(=O)Nc2ccccc2C(C)(C)C)cc1 | 19 µM (inactive) | 25.6 µM (inactive) | 30.8 µM (inactive) | 22 µM (inactive) | 31.6 µM (inactive) |  | 17.9 µM (inactive) | 24.9 µM (inactive) |  |
| Nc1cc(=O)n(-c2ccccc2)c(=S)n1-c1ccccc1 | > 100 µM (inactive) | > 100 µM (inactive) | > 100 µM (inactive) | > 100 µM (inactive) | > 100 µM (inactive) |  | > 100 µM (inactive) | > 100 µM (inactive) |  |
| Cc1nc(-n2nc(-c3ccccc3)cc2-c2ccccc2)sc1C(=O)CC(=O)C(=O)Nc1ccc(O)cc1 | > 100 µM (inactive) |  | > 100 µM (inactive) |  | > 100 µM (inactive) | > 100 µM (inactive) | > 100 µM (inactive) | > 100 µM (inactive) | > 100 µM (inactive) |
| C1OC1C1CO1 (stereo not given) | 98.2 µM (inactive) | 58.9 µM (inactive) | > 100 µM (inactive) | > 100 µM (inactive) | 87.3 µM (inactive) | > 100 µM (inactive) | 10.4 µM (inactive) |  |  |
| CC(=O)O/N=C(/C)c1ccccc1O | > 100 µM (inactive) | > 100 µM (inactive) | > 100 µM (inactive) | > 100 µM (inactive) | > 100 µM (inactive) | > 100 µM (inactive) | > 100 µM (inactive) | > 100 µM (inactive) |  |
| O=C1c2ccccc2C(=O)c2c(O)c(NCCNCCO)cc(O)c21 | 4.12 µM (inactive) | 3.62 µM (inactive) | 3.13 µM (inactive) | 6.95 µM (inactive) | 5.21 µM (inactive) | 6.49 µM (inactive) | 4.19 µM (inactive) | 5.96 µM (inactive) |  |
| Cc1ccc(-n2c3nc(=O)n(C)c(=O)c-3nc3ccccc32)cc1 | 5.27 µM (inactive) |  | 27.6 µM (inactive) | 25.4 µM (inactive) | 30.5 µM (inactive) | 14.7 µM (inactive) | 13.7 µM (inactive) | 36 µM (inactive) |  |
| N=c1ccn2c(n1)O[C@H]1[C@H](O)[C@@H](CO)O[C@H]12 [ANCITABINE HYDROCHLORIDE] | > 562 µM (inactive) | 7.21 µM (inactive) | 652 µM (inactive) | > 647 µM (inactive) | 242 µM (inactive) | 11.2 µM (inactive) | 0.406 µM (active) |  |  |
| CC1(C)CC(=O)C=C(NC(=O)c2ccccc2)C1 |  | > 100 µM (inactive) | > 100 µM (inactive) | > 100 µM (inactive) | > 100 µM (inactive) |  | > 100 µM (inactive) | > 100 µM (inactive) | > 100 µM (inactive) |
| C(=C1/CCCCC([n+]2ccccc2)=N1)/c1ccccc1 | > 100 µM (inactive) | > 100 µM (inactive) | > 100 µM (inactive) |  | > 100 µM (inactive) | > 100 µM (inactive) | > 100 µM (inactive) | > 100 µM (inactive) |  |
| CCc1cccc(C(C)C)c1NC(=O)C(=O)C(Cc1nc2ccccc2nc1O)C(=O)OC (stereo not given) | > 100 µM (inactive) | > 100 µM (inactive) | > 100 µM (inactive) | > 100 µM (inactive) |  | > 100 µM (inactive) | 14.3 µM (inactive) | > 100 µM (inactive) |  |
| Clc1ccc2c(Cl)ncnc2c1 | > 100 µM (inactive) | > 100 µM (inactive) | > 100 µM (inactive) | > 100 µM (inactive) |  |  |  |  |  |
| CCOCc1cc(=O)c2c(OC)cc3c(c2o1)CCC(C)(C)O3 | > 100 µM (inactive) | > 100 µM (inactive) | > 100 µM (inactive) | > 100 µM (inactive) | > 100 µM (inactive) | > 100 µM (inactive) |  | > 100 µM (inactive) |  |
| COc1c(O)c2c(c3cc(C(=O)N4CCc5c4c(O)c(OC)c4[nH]c(C(=O)N6CC7CC78C6=CC(=O)c6[nH]cc(C)c68)cc54)[nH]c13)CCN2C(N)=O (stereo not given) [CC-1065] | 0.00334 µM (active) | 0.0048 µM (active) | 0.00103 µM (active) |  | 0.00404 µM (active) |  | 0.0025 µM (active) | 0.00834 µM (active) |  |
| O=C(NCCCCCCNC(=O)n1cc(F)c(=O)[nH]c1=O)NCCCOCCOCCOCCOCCOCCOCCOCCOCCOCCOCCOCCOCCOCCOCCOCCOCCOCCOCCOCCOCCOCCCNC(=O)C(O)C(O)C(OC1OC(CO)C(O)C(O)C1O)C(O)CO (stereo not given) | 24.1 µM (inactive) | 64.3 µM (inactive) | 22.6 µM (inactive) | > 100 µM (inactive) | > 100 µM (inactive) | > 37 µM (inactive) | > 100 µM (inactive) |  |  |
| CCS(CC)(CC)CC1CCCC2=CCC(P(=O)(c3ccccc3)c3ccccc3)CC21 (stereo not given) | 11.5 µM (inactive) | 17.9 µM (inactive) | 11.2 µM (inactive) | 5.81 µM (inactive) | 15.4 µM (inactive) | 23.8 µM (inactive) | 8.81 µM (inactive) | 9.64 µM (inactive) | 13.6 µM (inactive) |
